{
  "source": "patent US7838263B2",
  "about": "“Methods of identifying a plant with an Nsf1 locus” (E. I. du Pont de Nemours and Company, priority 2006, dated 2010)",
  "key": {"corn lines": {"system": "corn lines", "assay": "Testing of maize plants for sensitivity to nicosulfuron", "format": "in vivo, Zea mays", "details": "misted with 2.3 mM nicosulfuron, 0.5% v/v Kinetic surfactant, approximately V3 stage", "procedure": "In order to determine if the Nsf1 allele was consistent across maize lines, three corn lines with unknown sensitivity levels to nicosulfuron were tested to determine their reaction and then evaluate their sequences. Plants were misted with a 2.3 mM nicosulfuron, 0.5% v/v Kinetic surfactant solution at approximately the V3 stage. Both known resistant and sensitive lines were also grown and sprayed as controls. […] Three corn lines with unknown sensitivity levels to nicosulfuron were tested to determine their reaction. Plants were misted with a 2.3 mM nicosulfuron, 0.5% v/v Kinetic surfactant solution at approximately the V3 stage. Both known resistant and sensitive lines were also grown and sprayed as controls."}, "[1]": {"system": "T0 soybean plants transformed with the Nsf1 gene", "assay": "T0 transgenic soybean plant herbicide response, visual score 1 to 9", "format": "in vivo, Glycine max", "from_the_text": "Two different constructs comprising the Nsf1 gene were created to examine herbicide efficacy of the gene when transformed into soybean. The Nsf1 constructs were co-bombarded with a 35S:HYG insert to permit event selection using hygromycin. At the V2 to V6 growth stage, a total of 127 T0 plants were sprayed with 35 g/ha rimsulfuron. All rimsulfuron treatments were applied with 0.2% w/w nonionic surfactant in a spray volume of 287 L/ha. In addition to the T0 plants, replications of three different controls were included—two positive and one negative. Individual plants were evaluated for herbicide response at ten days after treatment, and assigned a visual response score from 1 to 9 (1=dead plant to 9=no effect observed). Based upon high tolerance scores to the initial rimsulfuron spray, five T0 events were sprayed with an additional 35 g/ha rimsulfuron. Plants were rated for visual tolerance using a 1 to 9 score at ten days after the second application."}, "[2]": {"system": "transgenic soybean plants comprising the maize Nsf1 gene", "assay": "T1 transgenic soybean plant herbicide efficacy testing", "format": "in vivo, Glycine max", "details": "sprayed at V3 stage; for tolerance of one of the two T1 events compared to the controls: first event, 8 DAT and 15 DAT; for tolerance of the second T1 event compared to the controls: 15 DAT", "procedure": "Two events from the T0 generation were advanced to the T1 generation for additional herbicide efficacy testing of the Nsf1 gene. Replicates of two controls, as well as T1 plants, were grown in greenhouse experiments and sprayed with mesotrione at one of two rates (200 g/ha or 50 g/ha), nicosulfuron (70 g/ha), or rimsulfuron (35 g/ha) at the V3 growth stage. All herbicide treatments were applied with 1% w/w modified seed oil adjuvant in a spray volume of 374 L/ha. Plants were rated for herbicide response at eight days after application using a 1 to 9 score as used in the T0 testing.\nAn expanded herbicide efficacy test was developed in a second T1 plant experiment for the same two events advanced from the T0 generation. […] All herbicide treatments were applied in a spray volume of 287 L/ha. Isoxaflutole (140 g/ha), topramezone (140 g/ha), and sulcotrione (140 g/ha) were applied with 1% w/w modified seed oil adjuvant. Diuron treatments (560 g/ha) were applied with 1% w/w petroleum crop oil adjuvant. Acifluorfen (4480 g/ha), sulfentrazone (140 g/ha), flumioxazine (140 g/ha), and dicamba (280 g/ha) were applied with 0.25% w/w nonionic surfactant. Rimsulfuron (35 g/ha) treatments were applied with 0.5% w/w basic blend adjuvant. At eight and fifteen days after treatment, plants were rated visually for crop injury using a 0 to 100 scale (0=no injury to 100=dead plant)."}},
  "data": [
    {"smiles": "COc1cc(OC)nc(NC(=O)NS(=O)(=O)c2ncccc2C(=O)N(C)C)n1", "note": "[nicosulfuron]", "values": [
      {"measurement": "reaction of line A188 to nicosulfuron", "setting": "corn lines; line A188", "value": "sensitive"},
      {"measurement": "reaction of line Black Mexican Sweet (BMS) to nicosulfuron", "setting": "corn lines; line BMS", "value": "resistant"},
      {"measurement": "reaction of line Q66 to nicosulfuron", "setting": "corn lines; line Q66", "value": "resistant"}
    ]},
    {"smiles": "CCS(=O)(=O)c1cccnc1S(=O)(=O)NC(=O)Nc1nc(OC)cc(OC)n1", "note": "[rimsulfuron]", "values": [
      {"measurement": "T0 events with improved level of tolerance after an additional application", "setting": "[1]; after an additional application of 35 g/ha rimsulfuron", "value": "Three of 51"},
      {"measurement": "T0 events with improved tolerance compared to the controls", "setting": "[1]; ten days after treatment with 35 g/ha rimsulfuron, V2 to V6 stage", "value": "4 of 51"},
      {"measurement": "tolerance of one of the two T1 events compared to the controls", "setting": "[2]", "value": "significantly better tolerance"},
      {"measurement": "tolerance of the second T1 event compared to the controls", "setting": "[2]", "value": "significantly better tolerance"}
    ]},
    {"smiles": "C#CCN1C(=O)COc2cc(F)c(N3C(=O)C4=C(CCCC4)C3=O)cc21", "note": "[flumioxazine]", "values": [
      {"measurement": "tolerance of one of the two T1 events compared to the controls", "setting": "[2]", "value": "significantly better tolerance"}
    ]},
    {"smiles": "Cc1c(C(=O)c2cnn(C)c2O)ccc(S(C)(=O)=O)c1C1=NOCC1", "note": "[topramezone]", "values": [
      {"measurement": "tolerance of one of the two T1 events compared to the controls", "setting": "[2]", "value": "significantly better tolerance"},
      {"measurement": "tolerance of the second T1 event compared to the controls", "setting": "[2]", "value": "significantly better tolerance"}
    ]},
    {"smiles": "COc1c(Cl)ccc(Cl)c1C(=O)O", "note": "[dicamba]", "values": [
      {"measurement": "tolerance of one of the two T1 events compared to the controls", "setting": "[2]", "value": "significantly better tolerance"},
      {"measurement": "tolerance of the second T1 event compared to the controls", "setting": "[2]", "value": "significantly better tolerance"}
    ]},
    {"smiles": "CS(=O)(=O)c1ccc(C(=O)C2C(=O)CCCC2=O)c(Cl)c1", "note": "[sulcotrione]", "values": [
      {"measurement": "tolerance of one of the two T1 events compared to the controls", "setting": "[2]", "value": "significantly better tolerance"},
      {"measurement": "tolerance of the second T1 event compared to the controls", "setting": "[2]", "value": "significantly better tolerance"}
    ]},
    {"smiles": "CN(C)C(=O)Nc1ccc(Cl)c(Cl)c1", "note": "[diuron]", "values": [
      {"measurement": "tolerance of one of the two T1 events compared to the controls", "setting": "[2]", "value": "significantly better tolerance"}
    ]},
    {"smiles": "O=C(O)c1cc(Oc2ccc(C(F)(F)F)cc2Cl)ccc1[N+](=O)[O-]", "note": "[acifluorfen]", "values": [
      {"measurement": "tolerance of one of the two T1 events compared to the controls", "setting": "[2]", "value": "significantly better tolerance"},
      {"measurement": "tolerance of the second T1 event compared to the controls", "setting": "[2]", "value": "significantly better tolerance"}
    ]},
    {"smiles": "CS(=O)(=O)c1ccc(C(=O)C2C(=O)CCCC2=O)c([N+](=O)[O-])c1", "note": "[mesotrione]", "values": [
      {"measurement": "tolerance of one of the two T1 events compared to the controls", "setting": "[2]", "value": "significantly better tolerance"},
      {"measurement": "tolerance of the second T1 event compared to the controls", "setting": "[2]", "value": "significantly better tolerance"}
    ]},
    {"smiles": "Cc1nn(-c2cc(NS(C)(=O)=O)c(Cl)cc2Cl)c(=O)n1C(F)F", "note": "[sulfentrazone]", "values": [
      {"measurement": "tolerance of one of the two T1 events compared to the controls", "setting": "[2]", "value": "significantly better tolerance"},
      {"measurement": "tolerance of the second T1 event compared to the controls", "setting": "[2]", "value": "significantly better tolerance"}
    ]},
    {"smiles": "CS(=O)(=O)c1cc(C(F)(F)F)ccc1C(=O)c1cnoc1C1CC1", "note": "[isoxaflutole]", "values": [
      {"measurement": "tolerance of one of the two T1 events compared to the controls", "setting": "[2]", "value": "significantly better tolerance"},
      {"measurement": "tolerance of the second T1 event compared to the controls", "setting": "[2]", "value": "significantly better tolerance"}
    ]}
  ]
}
